Measurements from PubChem BioAssay AID256 (DTP/NCI, 2004).
Where “and” joins values, the source holds several entries; their conditions need not be identical. Equal entries are not always repeated. Inconclusive results and toxic doses are left out. The calls were made as follows: active = survival T/C of 150% or more; inactive = T/C below 125% in these data.

System: CD2F1 mice, L1210 leukemia ip, survival T/C
Assay: NCI In Vivo Anticancer Drug Screen. Data for tumor model L1210 Leukemia (intraperitoneal) in CD2F1 (CDF1) mice
Conditions: higher = longer survival
Method in brief: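 Mice carrying a transplanted tumor received test compound or vehicle alone. The value is the measurement in the treated group divided by that in the vehicle-treated control group.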

Measured: T/C

O=c1n(CC2CO2)c(=O)n(CC2CO2)c(=O)n1CC1CO1 (centres undefined)
221 % of control and 122 % of control: endpoint: median survival time, dose: 300.0 mg/kg/injection, schedule: Q04DX003 (oral), vehicle: saline
active: endpoint: mean survival time, dose: 12.5 mg/kg/injection, schedule: Q01DX009 (ip), vehicle: saline with Tween-80 166 % of control and 157 % of control | endpoint: mean survival time, dose: 12.5 mg/kg/injection, schedule: Q01DX009 (ip), vehicle: suspension in saline 162 % of control | endpoint: mean survival time, dose: 20.0 mg/kg/injection, schedule: Q01DX009 (ip), vehicle: saline 178 % of control | endpoint: mean survival time, dose: 25.0 mg/kg/injection, schedule: Q01DX009 (ip), vehicle: saline with Tween-80 291 % of control | endpoint: mean survival time, dose: 25.0 mg/kg/injection, schedule: Q01DX009 (ip), vehicle: saline 151 % of control and 177 % of control and 158 % of control | endpoint: mean survival time, dose: 25.0 mg/kg/injection, schedule: Q01DX009 (ip), vehicle: suspension in saline 276 % of control and 152 % of control | endpoint: mean survival time, dose: 25.0 mg/kg/injection, schedule: Q04DX003 (ip), vehicle: saline 182 % of control | endpoint: mean survival time, dose: 25.0 mg/kg/injection, schedule: Q04DX005 (ip), vehicle: saline 165 % of control | endpoint: mean survival time, dose: 30.0 mg/kg/injection, schedule: Q01DX009 (ip), vehicle: saline 164 % of control | endpoint: mean survival time, dose: 30.0 mg/kg/injection, schedule: Q01DX010 (ip), vehicle: saline 166 % of control | endpoint: mean survival time, dose: 40.0 mg/kg/injection, schedule: Q01DX010 (ip), vehicle: saline 195 % of control | endpoint: mean survival time, dose: 50.0 mg/kg/injection, schedule: Q01DX001 (ip), vehicle: saline 160 % of control and 205 % of control | endpoint: mean survival time, dose: 50.0 mg/kg/injection, schedule: Q01DX009 (ip), vehicle: saline with Tween-80 170 % of control | endpoint: mean survival time, dose: 50.0 mg/kg/injection, schedule: Q01DX009 (ip), vehicle: saline 151 % of control | endpoint: mean survival time, dose: 50.0 mg/kg/injection, schedule: Q01DX010 (ip), vehicle: saline 219 % of control | endpoint: mean survival time, dose: 50.0 mg/kg/injection, schedule: Q04DX003 (ip), vehicle: saline 187 % of control | endpoint: mean survival time, dose: 50.0 mg/kg/injection, schedule: Q04DX005 (ip), vehicle: saline 259 % of control and 340 % of control | endpoint: mean survival time, dose: 60.0 mg/kg/injection, schedule: Q01DX001 (ip), vehicle: saline 168 % of control and 202 % of control | endpoint: mean survival time, dose: 60.0 mg/kg/injection, schedule: Q01DX009 (ip), vehicle: saline 467 % of control | endpoint: mean survival time, dose: 70.0 mg/kg/injection, schedule: Q01DX001 (ip), vehicle: saline 291 % of control | endpoint: mean survival time, dose: 75.0 mg/kg/injection, schedule: Q04DX003 (ip), vehicle: saline 154 % of control | endpoint: mean survival time, dose: 75.0 mg/kg/injection, schedule: Q04DX005 (ip), vehicle: saline 208 % of control and 581 % of control | endpoint: mean survival time, dose: 80.0 mg/kg/injection, schedule: Q01DX001 (ip), vehicle: saline 202 % of control and 351 % of control | endpoint: median survival time, dose: 5.0 mg/kg/injection, schedule: Q03HX024 (ip), vehicle: saline 167 % of control | endpoint: median survival time, dose: 10.0 mg/kg/injection, schedule: Q03HX008 (ip), vehicle: saline 167 % of control | endpoint: median survival time, dose: 10.0 mg/kg/injection, schedule: Q03HX016 (ip), vehicle: saline 176 % of control | endpoint: median survival time, dose: 10.0 mg/kg/injection, schedule: Q03HX024 (ip), vehicle: saline 212 % of control | endpoint: median survival time, dose: 12.5 mg/kg/injection, schedule: Q01DX005 (ip), vehicle: saline 150 % of control | endpoint: median survival time, dose: 20.0 mg/kg/injection, schedule: Q01DX009 (ip), vehicle: saline 175 % of control | endpoint: median survival time, dose: 20.0 mg/kg/injection, schedule: Q03HX008 (ip), vehicle: saline 637 % of control | endpoint: median survival time, dose: 20.0 mg/kg/injection, schedule: Q03HX016 (ip), vehicle: saline 172 % of control | endpoint: median survival time, dose: 25.0 mg/kg/injection, schedule: Q01DX005 (ip), vehicle: saline 380 % of control | endpoint: median survival time, dose: 25.0 mg/kg/injection, schedule: Q04DX003 (ip), vehicle: saline 167 % of control | endpoint: median survival time, dose: 40.0 mg/kg/injection, schedule: Q01DX005 (ip), vehicle: saline 216 % of control | endpoint: median survival time, dose: 40.0 mg/kg/injection, schedule: Q01DX009 (ip), vehicle: saline 253 % of control and 750 % of control | endpoint: median survival time, dose: 40.0 mg/kg/injection, schedule: Q03HX016 (ip), vehicle: saline 160 % of control | endpoint: median survival time, dose: 50.0 mg/kg/injection, schedule: Q01DX001 (ip), vehicle: saline 160 % of control and 166 % of control | endpoint: median survival time, dose: 50.0 mg/kg/injection, schedule: Q01DX005 (ip), vehicle: saline 750 % of control | endpoint: median survival time, dose: 50.0 mg/kg/injection, schedule: Q01DX009 (ip), vehicle: saline 750 % of control | endpoint: median survival time, dose: 50.0 mg/kg/injection, schedule: Q04DX003 (ip), vehicle: saline 253 % of control | endpoint: median survival time, dose: 50.0 mg/kg/injection, schedule: Q08DX002 (ip), vehicle: saline 187 % of control | endpoint: median survival time, dose: 60.0 mg/kg/injection, schedule: Q01DX005 (ip), vehicle: saline 275 % of control | endpoint: median survival time, dose: 60.0 mg/kg/injection, schedule: Q01DX009 (ip), vehicle: saline 178 % of control | endpoint: median survival time, dose: 200.0 mg/kg/injection, schedule: Q01DX009 (oral), vehicle: saline 151 % of control | endpoint: median survival time, dose: 200.0 mg/kg/injection, schedule: Q04DX003 (oral), vehicle: saline 191 % of control | endpoint: median survival time, dose: 200.0 mg/kg/injection, schedule: Q08DX002 (oral), vehicle: saline 163 % of control | endpoint: median survival time, dose: 250.0 mg/kg/injection, schedule: Q01DX009 (oral), vehicle: saline 151 % of control | endpoint: median survival time, dose: 250.0 mg/kg/injection, schedule: Q08DX002 (ip), vehicle: saline 160 % of control | endpoint: median survival time, dose: 300.0 mg/kg/injection, schedule: Q08DX002 (oral), vehicle: saline 185 % of control | endpoint: median survival time, dose: 350.0 mg/kg/injection, schedule: Q01DX001 (ip), vehicle: saline 151 % of control | endpoint: median survival time, dose: 450.0 mg/kg/injection, schedule: Q01DX001 (ip), vehicle: saline 160 % of control
300 % of control and 109 % of control: endpoint: mean survival time, dose: 40.0 mg/kg/injection, schedule: Q01DX009 (ip), vehicle: saline
inactive: endpoint: mean survival time, dose: 50.0 mg/kg/injection, schedule: Q01DX009 (ip), vehicle: suspension in saline 94 % of control | endpoint: mean survival time, dose: 75.0 mg/kg/injection, schedule: Q01DX009 (ip), vehicle: saline 91 % of control | endpoint: mean survival time, dose: 80.0 mg/kg/injection, schedule: Q01DX009 (ip), vehicle: saline 104 % of control | endpoint: median survival time, dose: 12.5 mg/kg/injection, schedule: Q01DX001 (ip), vehicle: saline 121 % of control | endpoint: median survival time, dose: 12.5 mg/kg/injection, schedule: Q01DX001 (iv), vehicle: saline 101 % of control | endpoint: median survival time, dose: 12.5 mg/kg/injection, schedule: Q01DX005 (iv), vehicle: saline 113 % of control | endpoint: median survival time, dose: 12.5 mg/kg/injection, schedule: Q01DX009 (oral), vehicle: saline 105 % of control | endpoint: median survival time, dose: 20.0 mg/kg/injection, schedule: Q03HX024 (ip), vehicle: saline 116 % of control | endpoint: median survival time, dose: 25.0 mg/kg/injection, schedule: Q01DX001 (iv), vehicle: saline 107 % of control | endpoint: median survival time, dose: 25.0 mg/kg/injection, schedule: Q01DX009 (oral), vehicle: saline 110 % of control | endpoint: median survival time, dose: 50.0 mg/kg/injection, schedule: Q04DX003 (oral), vehicle: saline 116 % of control | endpoint: median survival time, dose: 70.0 mg/kg/injection, schedule: Q01DX005 (ip), vehicle: saline 110 % of control | endpoint: median survival time, dose: 100.0 mg/kg/injection, schedule: Q01DX001 (iv), vehicle: saline 100 % of control | endpoint: median survival time, dose: 100.0 mg/kg/injection, schedule: Q01DX001 (oral), vehicle: saline 123 % of control | endpoint: median survival time, dose: 100.0 mg/kg/injection, schedule: Q08DX002 (ip), vehicle: saline 122 % of control | endpoint: median survival time, dose: 150.0 mg/kg/injection, schedule: Q01DX005 (oral), vehicle: saline 116 % of control | endpoint: median survival time, dose: 350.0 mg/kg/injection, schedule: Q04DX003 (oral), vehicle: saline 122 % of control | endpoint: median survival time, dose: 350.0 mg/kg/injection, schedule: Q08DX002 (oral), vehicle: saline 119 % of control | endpoint: median survival time, dose: 400.0 mg/kg/injection, schedule: Q04DX003 (oral), vehicle: saline 120 % of control | endpoint: median survival time, dose: 450.0 mg/kg/injection, schedule: Q04DX003 (oral), vehicle: saline 118 % of control | endpoint: median survival time, dose: 450.0 mg/kg/injection, schedule: Q08DX002 (oral), vehicle: saline 118 % of control | endpoint: median survival time, dose: 500.0 mg/kg/injection, schedule: Q08DX002 (oral), vehicle: saline 123 % of control
206 % of control and 123 % of control: endpoint: mean survival time, dose: 6.25 mg/kg/injection, schedule: Q01DX009 (ip), vehicle: suspension in saline

CCOC(=O)c1ccc(NC(=O)C(Br)C(Br)C(=O)O)cc1 (centres undefined)
inactive: endpoint: mean survival time, dose: 100.0 mg/kg/injection, schedule: Q01DX001 (ip), vehicle: saline with Tween-80 110 % of control | endpoint: mean survival time, dose: 200.0 mg/kg/injection, schedule: Q01DX001 (ip), vehicle: saline with Tween-80 110 % of control | endpoint: mean survival time, dose: 400.0 mg/kg/injection, schedule: Q01DX001 (ip), vehicle: saline with Tween-80 108 % of control
